Experimental data taken from US20200385777A1, “METHOD FOR DETERMINING DYSBIOSIS IN THE INTESTINAL MICROBIOME” (EVOLVE BIOSYSTEMS, INC., priority 2018, published 2020).

Key:
isolate 7122-9 = experiment: MIC microdilution, fecal isolate 7122-9; format: cell-based
Protocol: (§1) Whole genome sequencing and assembly of bacterial isolates. […] Selected isolates were grown in 20 ml LB broth overnight at 37° C. Cultures were aliquoted into 1 ml aliquots, centrifuged at 10,000×g for 5 min and the supernatant was removed. Cell pellets were resuspended in DNA/RNA Shield solution provided in DNA/RNA Shield Microbe Lysis tubes (Zymo Research, Irvine Calif.) and transferred into lysis tubes. High-molecular weight genomic DNA was extracted using the Quick-DNA Fecal/Soil
(§2) Minimal inhibitory concentrations. […] Carbenicillin was added to growth media for transformed strains at a concentration of 100 μg/ml. The microtiter plates were incubated for 24 h at 37° C. The optical density (OD) of each well was measured at 600 nm using an automated microtiter plate reader (BIO-TEK, Synergy HT). The MIC corresponded to the lowest antibiotic concentration at which no growth was detected. All tests were performed in triplicate

isolate 7174-5 = experiment: MIC microdilution, fecal isolate 7174-5; format: cell-based
Protocol: as §1, §2

isolate 7122-2 = experiment: MIC microdilution, fecal isolate 7122-2; format: cell-based
Protocol: as §1, §2

isolate 7005-13 = experiment: MIC microdilution, fecal isolate 7005-13; format: cell-based
Protocol: as §1, §2

isolate 7005-9 = experiment: MIC microdilution, fecal isolate 7005-9; format: cell-based
Protocol: as §1, §2

DH5α = experiment: MIC microdilution, DH5α; format: cell-based
Protocol: as §2

[1] = tested on: bacteria isolated from EMB agar from fecal samples of control infants; experiment: MIC, fecal isolates of control infants taken together; format: cell-based, Escherichia coli; Raoultella planticola; conditions: all fecal isolates
Protocol: To confirm the presence of full length, functional ARGs and the relationship of these ARGs to individual resistance phenotypes at the strain level, bacteria isolated from EMB agar were obtained from the fecal samples of four representative control infants. Whole-genome sequencing of twelve isolates was performed on a MinION sequencer and assembly led to an average coverage of 18× (min 5.4; max 40). Taxonomic identification was confirmed via BLASTN against the NCBI nucleotide database (https://www.ncbl.nlrn.nih.gov/nucleotide) showing three isolates classified as Raoultella planticola and the remaining nine as Escherichia coli. The CARD protein sequences collection was used as query against the twelve assembled isolates via TBLASTN. […] The latter genes are likely absent on the E. coli and R. planticola genomes and present on different species.
Whole genome sequencing and assembly of bacterial isolates. […]
Minimal inhibitory concentrations. Minimal inhibitory concentrations (MICs) were determined according to Clinical and Laboratory Standards Institute guidelines for microdilution susceptibility testing {Wikler, 2006}. […] The optical density (OD) of each well was measured at 600 nm using an automated microtiter plate reader (BIO-TEK, Synergy HT). The MIC corresponded to the lowest antibiotic concentration at which no growth was detected. […]

isolate 7005-11 = experiment: MIC microdilution, fecal isolate 7005-11; format: cell-based
Protocol: as §1, §2

isolate 7084-1 = experiment: MIC microdilution, fecal isolate 7084-1; format: cell-based
Protocol: as §1, §2

isolate 7005-5 = experiment: MIC microdilution, fecal isolate 7005-5; format: cell-based
Protocol: as §1, §2

isolate 7174-2 = experiment: MIC microdilution, fecal isolate 7174-2; format: cell-based
Protocol: as §1, §2

isolate 7084-4 = experiment: MIC microdilution, fecal isolate 7084-4; format: cell-based
Protocol: as §1, §2

isolate 7122-1 = experiment: MIC microdilution, fecal isolate 7122-1; format: cell-based
Protocol: as §1, §2

isolate 7174-4 = experiment: MIC microdilution, fecal isolate 7174-4; format: cell-based
Protocol: as §1, §2

isolate 7084-5 = experiment: MIC microdilution, fecal isolate 7084-5; format: cell-based
Protocol: as §1, §2

Clostridium difficile = experiment: Equine trial: Clostridium difficile diarrhea outcome in foals; format: in vivo, horse; conditions: all foals dosed at birth with 6.6 mg/kg
Protocol: Seventeen foals were born during the initiation of the outbreak, of which fifteen animals became ill and required intervention, applying the standard of care (i.e., antibiotic treatment) and two died. […] All treated animals were given doses immediately at birth and twice per day thereafter for 4 days. […] Two foals, who were dosed starting at 12 hours of life rather than immediately at birth, developed a mild infection by Clostridium difficile but recovered within 8 hr compared to the standard recovery time of >24 hr for sick animals given the standard of care. […] A Fisher's exact test of the two populations (Standard of Care and Probiotic treated) yields a significant difference in incidences of C. difficile infection (p=0.0036) (Table 10).

[2] = read-out: Minimum inhibitory concentration (MIC)

Gentamicin
(S): Resistant/Susceptible according to breakpoints for clinical resistance (isolate 7122-9; isolate 7122-9) | Resistant/Susceptible according to breakpoints for clinical resistance (isolate 7174-5; isolate 7174-5) | Resistant/Susceptible according to breakpoints for clinical resistance (isolate 7122-2; isolate 7122-2) | Resistant/Susceptible according to breakpoints for clinical resistance (isolate 7005-13; isolate 7005-13) | Resistant/Susceptible according to breakpoints for clinical resistance (isolate 7005-9; isolate 7005-9) | Resistant/Susceptible according to breakpoints for clinical resistance (DH5α) | Resistant/Susceptible according to breakpoints for clinical resistance (isolate 7005-11; isolate 7005-11) | Resistant/Susceptible according to breakpoints for clinical resistance (isolate 7084-1; isolate 7084-1) | Resistant/Susceptible according to breakpoints for clinical resistance (isolate 7005-5; isolate 7005-5) | Resistant/Susceptible according to breakpoints for clinical resistance (isolate 7174-2; isolate 7174-2) | Resistant/Susceptible according to breakpoints for clinical resistance (isolate 7084-4; isolate 7084-4) | Resistant/Susceptible according to breakpoints for clinical resistance (isolate 7122-1; isolate 7122-1) | Resistant/Susceptible according to breakpoints for clinical resistance (isolate 7174-4; isolate 7174-4) | Resistant/Susceptible according to breakpoints for clinical resistance (isolate 7084-5; isolate 7084-5)
No resistance: Resistance among the isolates [1]
<4 µg/mL: Minimum inhibitory concentration (MIC) (isolate 7122-9; isolate 7122-9) | Minimum inhibitory concentration (MIC) (isolate 7174-5; isolate 7174-5) | Minimum inhibitory concentration (MIC) (isolate 7122-2; isolate 7122-2) | Minimum inhibitory concentration (MIC) (isolate 7005-13; isolate 7005-13) | Minimum inhibitory concentration (MIC) (isolate 7005-9; isolate 7005-9) | Minimum inhibitory concentration (MIC) (DH5α) | Minimum inhibitory concentration (MIC) (isolate 7005-11; isolate 7005-11) | Minimum inhibitory concentration (MIC) (isolate 7084-1; isolate 7084-1) | Minimum inhibitory concentration (MIC) (isolate 7005-5; isolate 7005-5) | Minimum inhibitory concentration (MIC) (isolate 7174-2; isolate 7174-2) | Minimum inhibitory concentration (MIC) (isolate 7084-4; isolate 7084-4) | Minimum inhibitory concentration (MIC) (isolate 7122-1; isolate 7122-1) | Minimum inhibitory concentration (MIC) (isolate 7174-4; isolate 7174-4) | Minimum inhibitory concentration (MIC) (isolate 7084-5; isolate 7084-5)

Cc1nnc(SCC2=C(C(=O)O)N3C(=O)[C@@H](NC(=O)Cn4cnnn4)[C@H]3SC2)s1 [Cefazolin]
8 µg/mL: MIC (isolate 7122-9; [2]) | MIC (isolate 7122-2; [2]) | MIC (isolate 7122-1; [2])
512 µg/mL: MIC (isolate 7174-5; [2]) | MIC (isolate 7174-4; [2])
64 µg/mL: MIC (isolate 7005-13; [2]) | MIC (isolate 7005-9; [2]) | MIC (isolate 7005-11; [2]) | MIC (isolate 7005-5; [2]) | MIC (isolate 7174-2; [2])
32 µg/mL: MIC (isolate 7084-1; [2]) | MIC (isolate 7084-4; [2]) | MIC (isolate 7084-5; [2])
< 4 µg/mL: MIC (DH5α; [2])

CO/N=C(\C(=O)N[C@@H]1C(=O)N2C(C(=O)O)=C(CSC(=O)c3ccco3)CS[C@H]12)c1csc(N)n1 [ceftiofur]
did not affect health outcome: Effect on health outcome related to diarrhea (Clostridium difficile)
